Source: PMC9587990, “Molecular basis for isoform-selective inhibition of presenilin-1 by MRK-560” (Nature Communications, 2022)
Values joined by “and” are separate entries in the source; they are usually repeats but may differ in a detail not shown here. Identical values can stand only once. Like-named read-outs stand apart in the source and are kept apart here.

Assays:
[1] = target: T1, PS1 TL281-282PI γ-secretase complex (Homo sapiens, UniProt P49768, L282I/T281P); test: in vitro cleavage assay, Aβ40 production by AlphaLISA; assay type: biochemical; details: PS1TL 281 282PI, replicates
T1 construct: made in house
Description: (§1) In total we generated six variants, including single and double residue swapping of Thr281/Leu282 in PS1 with Pro287/Ile288 in PS2, respectively. MRK-560 response to the six PS1/PS2 mutant-containing complexes, each purified to homogeneity, was examined in the in vitro cleavage assay (Fig. 4). All proteins used for the activity assay were sub-cloned, expressed and purified as described. Protein concentration was determined using the Bradford method. […] The cleavage reaction was conducted at 37 °C for 4 h. The cleaved products of these substrates were detected using a monoclonal antibody (1:1000 dilution, CW0299, CWBio) against the C-terminal Myc tag. Aβ40 production was detected using the AlphaLISA assay (PerkinElmer) as described. The IC50 values and the inhibition curves were calculated using Prism 8.0. Statistical analysis of Aβ40 was performed using Prism 8 (GraphPad Software, San Diego, CA, USA). IC50 were determined by a four-parameter logistic regression. The statistical details can be found in Figs. 1, 4 and legends. Data are expressed as mean ± SD.

[2] = target: T2, PS2 P287T γ-secretase complex (Homo sapiens, UniProt P49810, P287T); test: as above; assay type: biochemical; details: for remaining activity at 0.002 µM / remaining activity at 0.04 µM / remaining activity at 0.2 µM / remaining activity at 1 µM / remaining activity at 10 µM / remaining activity at 20 µM: 4 h
T2 construct: made in house
Description: as §1

[3] = target: T3, PS2 PI287-288TL γ-secretase complex (Homo sapiens, UniProt P49810, I288L/P287T); test: as above; assay type: biochemical; details: for remaining activity at 0.002 µM / remaining activity at 0.04 µM / remaining activity at 0.2 µM / remaining activity at 1 µM / remaining activity at 10 µM / remaining activity at 20 µM: 4 h
T3 construct: made in house
Description: as §1

[4] = tested on: Notch; design: method as in PMID 17099072, PMID 16443723; details: wild-type (WT) mouse model; cited from earlier work
[5] = PS2 PI 287 288 TL, MRK-560 2 nM, replicates
[6] = PS2 PI 287 288 TL, MRK-560 40 nM, replicates
[7] = PS2 PI 287 288 TL, MRK-560 200 nM, replicates
[8] = PS2 PI 287 288 TL, MRK-560 1 μM, replicates
[9] = PS2 PI 287 288 TL, MRK-560 10 μM, replicates
[10] = PS2 PI 287 288 TL, MRK-560 20 μM, replicates

- Caculated Aβ40 production ([1]; MRK-560 2 nM): 380.9708 and 384.7930 and 381.0949
- raw data from α-Lisa reading ([1]; MRK-560 2 nM): 58097 and 58620 and 58114
- Caculated Aβ40 production ([1]; MRK-560 10 nM): 372.0557 and 371.8958 and 369.4343
- raw data from α-Lisa reading ([1]; MRK-560 10 nM): 56873 and 56851 and 56512
- Caculated Aβ40 production ([1]; MRK-560 40 nM): 339.5167 and 363.4357 and 337.7821
- raw data from α-Lisa reading ([1]; MRK-560 40 nM): 52356 and 55684 and 52113
- Caculated Aβ40 production ([1]; MRK-560 200 nM): 195.2943 and 180.8050 and 191.3579
- raw data from α-Lisa reading ([1]; MRK-560 200 nM): 31350 and 29146 and 30753
- Caculated Aβ40 production ([1]; MRK-560 1 μM): 36.3190 and 36.2828 and 37.2900
- raw data from α-Lisa reading ([1]; MRK-560 1 μM): 6150 and 6144 and 6311
- Caculated Aβ40 production ([1]; MRK-560 10 μM): 4.7413 and 3.9425 and 4.5046
- raw data from α-Lisa reading ([1]; MRK-560 10 μM): 864 and 729 and 824
- remaining activity at 0.002 µM ([2]; MRK-560 2 nM, mean of 3 replicates, read-out: Normalized production (control=1), Mean): 86.9%
- remaining activity at 0.002 µM ([2]; MRK-560 2 nM, replicates, read-out: Normalized production (control=1)): 87.8%
- remaining activity at 0.04 µM ([2]; MRK-560 40 nM, mean of 3 replicates, read-out: Normalized production (control=1), Mean): 68.9%
- remaining activity at 0.04 µM ([2]; MRK-560 40 nM, replicates, read-out: Normalized production (control=1)): 70.8%
- remaining activity at 0.2 µM ([2]; MRK-560 200 nM, mean of 3 replicates, read-out: Normalized production (control=1), Mean): 33.9%
- remaining activity at 0.2 µM ([2]; MRK-560 200 nM, replicates, read-out: Normalized production (control=1)): 34.2%
- remaining activity at 1 µM ([2]; MRK-560 1 μM, mean of 3 replicates, read-out: Normalized production (control=1), Mean): 8.68%
- remaining activity at 1 µM ([2]; MRK-560 1 μM, replicates, read-out: Normalized production (control=1)): 8.69%
- remaining activity at 10 µM ([2]; MRK-560 10 μM, mean of 3 replicates, read-out: Normalized production (control=1), Mean): 1.62%
- remaining activity at 10 µM ([2]; MRK-560 10 μM, replicates, read-out: Normalized production (control=1)): 1.63%
- remaining activity at 20 µM ([2]; MRK-560 20 μM, mean of 3 replicates, read-out: Normalized production (control=1), Mean): 1.25%
- remaining activity at 20 µM ([2]; MRK-560 20 μM, replicates, read-out: Normalized production (control=1)): 1.14%
- Caculated Aβ40 production ([2]; MRK-560 2 nM, replicates): 520.0011 and 533.1358 and 528.5350
- raw data from α-Lisa reading ([2]; MRK-560 2 nM, replicates): 78132 and 77549 and 76464
- Caculated Aβ40 production ([2]; MRK-560 40 nM, replicates): 419.8422 and 429.7041 and 404.1611
- raw data from α-Lisa reading ([2]; MRK-560 40 nM, replicates): 64687 and 61254 and 63367
- Caculated Aβ40 production ([2]; MRK-560 200 nM, replicates): 203.3520 and 207.5605 and 206.0857
- raw data from α-Lisa reading ([2]; MRK-560 200 nM, replicates): 33202 and 32980 and 32568
- Caculated Aβ40 production ([2]; MRK-560 1 μM, replicates): 52.1767 and 52.7609 and 53.0714
- raw data from α-Lisa reading ([2]; MRK-560 1 μM, replicates): 8864 and 8915 and 8768
- Caculated Aβ40 production ([2]; MRK-560 10 μM, replicates): 9.7739 and 9.8808 and 9.9223
- raw data from α-Lisa reading ([2]; MRK-560 10 μM, replicates): 1731 and 1738 and 1713
- Caculated Aβ40 production ([2]; MRK-560 20 μM, replicates): 7.8338 and 6.8972 and 8.0769
- raw data from α-Lisa reading ([2]; MRK-560 20 μM, replicates): 1228 and 1427 and 1386
- IC50 ([2]; mean ± SD): 106 ± 27 nM
- remaining activity at 0.002 µM ([3]; PS2 PI 287 288 TL, MRK-560 2 nM, mean of 3 replicates, read-out: Normalized production (control=1), Mean): 88.4%
- remaining activity at 0.002 µM ([3]; PS2 PI 287 288 TL, MRK-560 2 nM, replicates, read-out: Normalized production (control=1)): 89.8%
- remaining activity at 0.04 µM ([3]; PS2 PI 287 288 TL, MRK-560 40 nM, mean of 3 replicates, read-out: Normalized production (control=1), Mean): 38.7%
- remaining activity at 0.04 µM ([3]; PS2 PI 287 288 TL, MRK-560 40 nM, replicates, read-out: Normalized production (control=1)): 36.2%
- remaining activity at 0.2 µM ([3]; PS2 PI 287 288 TL, MRK-560 200 nM, mean of 3 replicates, read-out: Normalized production (control=1), Mean): 6.34%
- remaining activity at 0.2 µM ([3]; PS2 PI 287 288 TL, MRK-560 200 nM, replicates, read-out: Normalized production (control=1)): 6.66%
- remaining activity at 1 µM ([3]; PS2 PI 287 288 TL, MRK-560 1 μM, mean of 3 replicates, read-out: Normalized production (control=1), Mean): 1.64%
- remaining activity at 1 µM ([3]; PS2 PI 287 288 TL, MRK-560 1 μM, replicates, read-out: Normalized production (control=1)): 1.65%
- remaining activity at 10 µM ([3]; PS2 PI 287 288 TL, MRK-560 10 μM, mean of 3 replicates, read-out: Normalized production (control=1), Mean): 0.86%
- remaining activity at 10 µM ([3]; PS2 PI 287 288 TL, MRK-560 10 μM, replicates, read-out: Normalized production (control=1)): 0.88%
- remaining activity at 20 µM ([3]; PS2 PI 287 288 TL, MRK-560 20 μM, mean of 3 replicates, read-out: Normalized production (control=1), Mean): 1.37%
- remaining activity at 20 µM ([3]; PS2 PI 287 288 TL, MRK-560 20 μM, replicates, read-out: Normalized production (control=1)): 1.35%
- Caculated Aβ40 production [3, 5]: 622.5323 and 598.5358 and 618.8332
- raw data from α-Lisa reading [3, 5]: 89195 and 86274 and 88747
- Caculated Aβ40 production [3, 6]: 251.4190 and 280.0544 and 273.5511
- raw data from α-Lisa reading [3, 6]: 39722 and 43895 and 42953
- Caculated Aβ40 production [3, 7]: 46.1689 and 42.1835 and 43.6058
- raw data from α-Lisa reading [3, 7]: 7779 and 7121 and 7356
- Caculated Aβ40 production [3, 8]: 11.4428 and 11.3299 and 11.2705
- Normalized production (control=1) [3, 8]: 0.0163
- raw data from α-Lisa reading [3, 8]: 1994 and 1975 and 1965
- Caculated Aβ40 production [3, 9]: 6.1091 and 5.7952 and 6.0025
- raw data from α-Lisa reading [3, 9]: 1095 and 1042 and 1077
- Caculated Aβ40 production [3, 10]: 9.3406 and 8.5277 and 10.7299
- raw data from α-Lisa reading [3, 10]: 1640 and 1503 and 1874
- IC50 ([3]; PS2 PI287-288TL, mean ± SD): 25 ± 4 nM
SMILES: O=S(=O)(NC1CCC(c2cc(F)ccc2F)(S(=O)(=O)c2ccc(Cl)cc2)CC1)C(F)(F)F (stereo not drawn) [MRK-560, N-[cis-4-[(4-chlorophenyl)sulfonyl]-4-(2,5-difluorophenyl)cyclohexyl]-1,1,1-trifluoromethanesulfonamide]
- Notch-related side effect [4]: does not induce Notch-related side effect
